Test: Ames assay (genotoxicity)
Assay type: cell-based
Conditions: synthetic intermediates of the last three steps

NC(=O)Nc1ccc(CCN2C(=O)CO[C@@H]2c2cn(-c3ccc(Br)cc3)nc2-c2ccc(F)cc2)cc1 [Compound 17]
Ames assay result: negative

NC(=O)Nc1ccc(CCN2C(=O)CO[C@@H]2c2cn(-c3ccc(Br)cc3)nc2-c2ccc(F)cc2)cc1I [Compound 9]
Ames assay result: negative

Reference: patent US12709610B2, “Preparation method for hepatitis B virus nucleocapsid inhibitor” (Shanghai Zhimeng Biopharma, Inc., priority 2021, dated 2026)
